{"source": "ChEMBL document CHEMBL5113380", "about": "“Functionalized quinoxalinones as privileged structures with broad-ranging pharmacological activities” (Eur J Med Chem, 2022)", "note": "pIC50: −log10 of the molar value."}
{"system": "Bacillus cereus", "assay": "Antibacterial activity against Bacillus cereus", "type": "functional", "settings": "not given", "units": {"MBC": "µg/mL", "MIC": "µg/mL"}}
{"smiles": "CCCCCCCCC[n+]1cccc(-c2nc(-c3ccccc3)c3c(=O)n(CCCCCC)c4ccccc4n23)c1.[I-]", "MBC": 500, "MIC": 0.78}
{"smiles": "CCCCCCn1c(=O)c2c(-c3ccccc3)nc(-c3ccc[n+](Cc4ccccc4)c3)n2c2ccccc21.[Cl-]", "MBC": "> 500", "MIC": 6.3}
{"smiles": "CCCCCCCCCn1c(=O)c2c(-c3ccccc3)nc(-c3ccc[n+](CCCCCCCCC)c3)n2c2ccccc21.[I-]", "MBC": "> 500", "MIC": 7.8}
{"smiles": "CCCCCCCCCn1c(=O)c2c(-c3ccccc3)nc(-c3ccc[n+](Cc4ccccc4)c3)n2c2ccccc21.[Cl-]", "MBC": "> 500", "MIC": 12.5}
{"smiles": "CCCCCCCCCn1c(=O)c2c(-c3ccccc3)nc(-c3ccc[n+](CCCCCCCCC)c3)n2c2ccccc21.[Br-]", "MBC": 500, "MIC": 6.3}
{"smiles": "CCCCCCCCC[n+]1cccc(-c2nc(-c3ccccc3)c3c(=O)n(CCCCCC)c4ccccc4n23)c1.[Br-]", "MBC": 50, "MIC": 0.97}
{"system": "Staphylococcus aureus", "assay": "Antibacterial activity against Staphylococcus aureus", "type": "functional", "settings": "not given", "units": {"MBC": "µg/mL", "MIC": "µg/mL"}}
{"smiles": "CCCCCCCCC[n+]1cccc(-c2nc(-c3ccccc3)c3c(=O)n(CCCCCC)c4ccccc4n23)c1.[I-]", "MBC": 5, "MIC": 0.78}
{"smiles": "CCCCCCn1c(=O)c2c(-c3ccccc3)nc(-c3ccc[n+](Cc4ccccc4)c3)n2c2ccccc21.[Cl-]", "MBC": 50, "MIC": 0.97}
{"smiles": "CCCCCCCCCn1c(=O)c2c(-c3ccccc3)nc(-c3ccc[n+](CCCCCCCCC)c3)n2c2ccccc21.[I-]", "MBC": 500, "MIC": 7.8}
{"smiles": "CCCCCCCCCn1c(=O)c2c(-c3ccccc3)nc(-c3ccc[n+](Cc4ccccc4)c3)n2c2ccccc21.[Cl-]", "MBC": 50, "MIC": 1.95}
{"smiles": "CCCCCCCCCn1c(=O)c2c(-c3ccccc3)nc(-c3ccc[n+](CCCCCCCCC)c3)n2c2ccccc21.[Br-]", "MBC": 50, "MIC": 1.5}
{"smiles": "CCOC(=O)c1nc2cc(C(F)(F)F)ccc2[nH]c1=O", "MIC": 250}
{"smiles": "CCCCCCCCC[n+]1cccc(-c2nc(-c3ccccc3)c3c(=O)n(CCCCCC)c4ccccc4n23)c1.[Br-]", "MBC": 5, "MIC": 0.97}
{"system": "not listed separately", "assay": "Inhibition of ALR1 (unknown origin) relative to control", "parameters": "concentration or dose not given beside the values", "settings": "Homo sapiens; concentration not given here", "units": {"inhibition": "%"}}
{"smiles": "O=C(O)Cn1c(=O)c(Oc2ccc(Br)cc2F)nc2ccc(F)cc21", "inhibition": 58.7}
{"smiles": "O=C(O)Cn1c(=O)c(CCc2ccccc2)nc2ccccc21", "inhibition": 22}
{"smiles": "O=C(O)Cn1c(=O)c(Oc2ccc(Br)cc2)nc2cc(Br)ccc21", "inhibition": 25.6}
{"smiles": "O=C(O)Cn1c(=O)c(Oc2ccc(Br)cc2)nc2ccc(F)cc21", "inhibition": 30.7}
{"system": "MCF7", "assay": "Antiproliferative activity against human MCF7 cells", "type": "functional, cell-based", "settings": "not given"}
{"smiles": "COc1ccc(/C(=C(\\C#N)C(=O)NN)n2c(=O)c(O)nc3ccccc32)cc1", "pIC50": 5.58}
{"target": "Human immunodeficiency virus type 1 reverse transcriptase (Human immunodeficiency virus 1, UniProt Q72547)", "assay": "Inhibition of HIV1 reverse transcriptase", "settings": "not given"}
{"smiles": "COC(=O)c1sccc1S(=O)(=O)N1c2cc(F)ccc2NC(=O)C1C", "note": "(stereo not drawn)", "pIC50": 6.70}
{"smiles": "COC(=O)c1sc(Cl)cc1S(=O)(=O)N1c2cc(Cl)ccc2NC(=O)C1C", "note": "(stereo not drawn)", "pIC50": 7.15}
{"system": "not listed separately", "assay": "Inhibition of ALR2 (unknown origin)", "parameters": "species or system Homo sapiens", "settings": "not given"}
{"smiles": "O=C(O)Cn1c(=O)c(Oc2ccc(Br)cc2F)nc2ccc(F)cc21", "pIC50": 8.19}
{"smiles": "O=C(O)Cn1c(=O)c(CCc2ccccc2)nc2ccccc21", "pIC50": 6.84}
{"smiles": "O=C(O)Cn1c(=O)c(Oc2ccc(Br)cc2)nc2cc(Br)ccc21", "pIC50": 7.79}
{"smiles": "O=C(O)Cn1c(=O)c(Oc2ccc(Br)cc2)nc2ccc(F)cc21", "pIC50": 7.94}
{"system": "Candida albicans", "assay": "Antifungal activity against Candida albicans", "type": "functional", "settings": "not given", "units": {"MBC": "µg/mL", "MIC": "µg/mL"}}
{"smiles": "CCCCCCCCC[n+]1cccc(-c2nc(-c3ccccc3)c3c(=O)n(CCCCCC)c4ccccc4n23)c1.[I-]", "MBC": 500, "MIC": 500}
{"smiles": "CCCCCCn1c(=O)c2c(-c3ccccc3)nc(-c3ccc[n+](Cc4ccccc4)c3)n2c2ccccc21.[Cl-]", "MBC": 500, "MIC": 7.8}
{"smiles": "CCCCCCCCCn1c(=O)c2c(-c3ccccc3)nc(-c3ccc[n+](CCCCCCCCC)c3)n2c2ccccc21.[I-]", "MBC": "> 500", "MIC": "> 500"}
{"smiles": "CCCCCCCCCn1c(=O)c2c(-c3ccccc3)nc(-c3ccc[n+](Cc4ccccc4)c3)n2c2ccccc21.[Cl-]", "MBC": 500, "MIC": 3.9}
{"smiles": "CCCCCCCCCn1c(=O)c2c(-c3ccccc3)nc(-c3ccc[n+](CCCCCCCCC)c3)n2c2ccccc21.[Br-]", "MBC": 500, "MIC": 50}
{"smiles": "CCCCCCCCC[n+]1cccc(-c2nc(-c3ccccc3)c3c(=O)n(CCCCCC)c4ccccc4n23)c1.[Br-]", "MBC": 50, "MIC": 0.97}
{"system": "Escherichia coli", "assay": "Antibacterial activity against Escherichia coli", "type": "functional", "settings": "not given", "units": {"MBC": "µg/mL", "MIC": "µg/mL"}}
{"smiles": "CCCCCCCCC[n+]1cccc(-c2nc(-c3ccccc3)c3c(=O)n(CCCCCC)c4ccccc4n23)c1.[I-]", "MBC": "> 500", "MIC": "> 500"}
{"smiles": "CCCCCCn1c(=O)c2c(-c3ccccc3)nc(-c3ccc[n+](Cc4ccccc4)c3)n2c2ccccc21.[Cl-]", "MBC": "> 500", "MIC": "> 500"}
{"smiles": "CCCCCCCCCn1c(=O)c2c(-c3ccccc3)nc(-c3ccc[n+](CCCCCCCCC)c3)n2c2ccccc21.[I-]", "MBC": "> 500", "MIC": "> 500"}
{"smiles": "CCCCCCCCCn1c(=O)c2c(-c3ccccc3)nc(-c3ccc[n+](Cc4ccccc4)c3)n2c2ccccc21.[Cl-]", "MBC": "> 500", "MIC": "> 500"}
{"smiles": "CCCCCCCCCn1c(=O)c2c(-c3ccccc3)nc(-c3ccc[n+](CCCCCCCCC)c3)n2c2ccccc21.[Br-]", "MBC": "> 500", "MIC": "> 500"}
{"smiles": "CCOC(=O)c1nc2cc(C(F)(F)F)ccc2[nH]c1=O", "MIC": 125}
{"smiles": "CCCCCCCCC[n+]1cccc(-c2nc(-c3ccccc3)c3c(=O)n(CCCCCC)c4ccccc4n23)c1.[Br-]", "MBC": 500, "MIC": 500}
{"system": "Aspergillus niger", "assay": "Antifungal activity against Aspergillus niger", "type": "functional", "settings": "not given", "units": {"MBC": "µg/mL", "MIC": "µg/mL"}}
{"smiles": "CCCCCCCCC[n+]1cccc(-c2nc(-c3ccccc3)c3c(=O)n(CCCCCC)c4ccccc4n23)c1.[I-]", "MBC": "> 500", "MIC": "> 500"}
{"smiles": "CCCCCCn1c(=O)c2c(-c3ccccc3)nc(-c3ccc[n+](Cc4ccccc4)c3)n2c2ccccc21.[Cl-]", "MBC": "> 500", "MIC": "> 500"}
{"smiles": "CCCCCCCCCn1c(=O)c2c(-c3ccccc3)nc(-c3ccc[n+](CCCCCCCCC)c3)n2c2ccccc21.[I-]", "MBC": "> 500", "MIC": "> 500"}
{"smiles": "CCCCCCCCCn1c(=O)c2c(-c3ccccc3)nc(-c3ccc[n+](Cc4ccccc4)c3)n2c2ccccc21.[Cl-]", "MBC": "> 500", "MIC": "> 500"}
{"smiles": "CCCCCCCCCn1c(=O)c2c(-c3ccccc3)nc(-c3ccc[n+](CCCCCCCCC)c3)n2c2ccccc21.[Br-]", "MBC": "> 500", "MIC": "> 500"}
{"smiles": "CCCCCCCCC[n+]1cccc(-c2nc(-c3ccccc3)c3c(=O)n(CCCCCC)c4ccccc4n23)c1.[Br-]", "MBC": "> 500", "MIC": "> 500"}
{"system": "HeLa", "assay": "Antiproliferative activity against human HeLa cells", "type": "functional, cell-based", "settings": "not given"}
{"smiles": "COc1ccc(/C(=C(\\C#N)C(=O)NN)n2c(=O)c(O)nc3ccccc32)cc1", "pIC50": 5.05}
{"system": "Trichophyton mentagrophytes", "assay": "Antimicrobial activity against Trichophyton mentagrophytes", "type": "functional", "settings": "not given", "units": {"MBC": "µg/mL", "MIC": "µg/mL"}}
{"smiles": "CCCCCCCCC[n+]1cccc(-c2nc(-c3ccccc3)c3c(=O)n(CCCCCC)c4ccccc4n23)c1.[I-]", "MBC": "> 500", "MIC": "> 500"}
{"smiles": "CCCCCCn1c(=O)c2c(-c3ccccc3)nc(-c3ccc[n+](Cc4ccccc4)c3)n2c2ccccc21.[Cl-]", "MBC": "> 500", "MIC": 500}
{"smiles": "CCCCCCCCCn1c(=O)c2c(-c3ccccc3)nc(-c3ccc[n+](CCCCCCCCC)c3)n2c2ccccc21.[I-]", "MBC": "> 500", "MIC": "> 500"}
{"smiles": "CCCCCCCCCn1c(=O)c2c(-c3ccccc3)nc(-c3ccc[n+](Cc4ccccc4)c3)n2c2ccccc21.[Cl-]", "MBC": "> 500", "MIC": 500}
{"smiles": "CCCCCCCCCn1c(=O)c2c(-c3ccccc3)nc(-c3ccc[n+](CCCCCCCCC)c3)n2c2ccccc21.[Br-]", "MBC": "> 500", "MIC": 500}
{"smiles": "CCCCCCCCC[n+]1cccc(-c2nc(-c3ccccc3)c3c(=O)n(CCCCCC)c4ccccc4n23)c1.[Br-]", "MBC": 250, "MIC": 250}
{"system": "Pseudomonas aeruginosa", "assay": "Antibacterial activity against Pseudomonas aeruginosa", "type": "functional", "settings": "not given", "units": {"MBC": "µg/mL", "MIC": "µg/mL"}}
{"smiles": "CCCCCCCCC[n+]1cccc(-c2nc(-c3ccccc3)c3c(=O)n(CCCCCC)c4ccccc4n23)c1.[I-]", "MBC": "> 500", "MIC": "> 500"}
{"smiles": "CCCCCCn1c(=O)c2c(-c3ccccc3)nc(-c3ccc[n+](Cc4ccccc4)c3)n2c2ccccc21.[Cl-]", "MBC": "> 500", "MIC": "> 500"}
{"smiles": "CCCCCCCCCn1c(=O)c2c(-c3ccccc3)nc(-c3ccc[n+](CCCCCCCCC)c3)n2c2ccccc21.[I-]", "MBC": "> 500", "MIC": "> 500"}
{"smiles": "CCCCCCCCCn1c(=O)c2c(-c3ccccc3)nc(-c3ccc[n+](Cc4ccccc4)c3)n2c2ccccc21.[Cl-]", "MBC": "> 500", "MIC": "> 500"}
{"smiles": "CCCCCCCCCn1c(=O)c2c(-c3ccccc3)nc(-c3ccc[n+](CCCCCCCCC)c3)n2c2ccccc21.[Br-]", "MBC": "> 500", "MIC": "> 500"}
{"smiles": "CCCCCCCCC[n+]1cccc(-c2nc(-c3ccccc3)c3c(=O)n(CCCCCC)c4ccccc4n23)c1.[Br-]", "MBC": "> 500", "MIC": "> 500"}
